Test results: paper PMC8312610, “F4, a collagen XIX-derived peptide, inhibits tumor angiogenesis through αvβ3 and α5β1 integrin interaction” (Cell Adhesion & Migration, 2021)
Entries after “also recorded” stand apart in the source; their conditions may differ. Positions of bridges follow the written chain, without caps; N, C: chain ends. No end group written: not given here.

Key:
mouse melanoma model = details: previously demonstrated by the authors, no ref in abstract; cited from earlier work
Excerpt: (§1) The aim of the present work was to study the anti-angiogenic properties of F4 peptide. […] By affinity chromatography, we identified αvβ3 and α5β1 integrins as potential receptors for F4 peptide on endothelial cell surface. Using solid phase assays, ... || Type XIX collagen, that belongs to the FACIT family (Fibril-Associated Collagens with Interrupted Triple helices), is a minor collagen associated to the basement membrane zone.

melanoma cell = details: cited from earlier work
Excerpt: as §1

[1] = tested on: HUVEC (Human Umbilical Vein Endothelial Cells); assay: HUVEC proliferation (crystal violet); assay type: cell-based; details: 40 μM, 48 h, 5,000 HUVEC per well in ECGM, 560 nm, means ± SD (n = 16), N = 3
Method: Figure 1. […] 5,000 HUVEC were seeded in a 96 well plate and incubated with or without 40 μM NC1(XIX) or F4 for 48 hours. After washing, cells were fixed with glutaraldehyde and stained with crystal violet. Dye was eluted with 10% acetic acid and absorbance was read at 560 nm. The values are the means ± SD (n = 16). The experiment was repeated three times (N = 3) and the results presented in the figure correspond to the more representative one
Human Umbilical Vein Endothelial Cells (HUVEC) (Ref C-12253) were purchased from Promocell. They were grown in Endothelial Cell Growth Medium (ECGM) (Promocell, Ref C-22110: Basal medium supplemented with 0.02 mL/mL Fetal Calf Serum, 0.004 mL/mL Endothelial Cell Growth Supplement, 0.1 ng/mL Epidermal Growth Factor (recombinant human), 1 ng/mL Basic Fibroblast Growth Factor (recombinant human), 90 μg/mL Heparin, 1 μg/mL Hydrocortisone) at +37°C in a humid atmosphere containing 5% CO2. PromoCell Detach Kit was used for the detachment of HUVEC according to the manufacturer’s protocols (Promocell, ref C-41200).
For cell proliferation measurement, 5,000 HUVEC were seeded in 96-well plates and cultivated in ECGM with or without 40 μM NC1(XIX) or F4 at +37°C in a humid atmosphere containing 5% CO2. […] Dye was eluted with 10% (v/v) acetic acid and absorbance was read at 560 nm.

[2] = tested on: Sprague Dawley rat aortic rings; assay: Ex vivo rat aortic ring assay (endothelial cell outgrowth); assay type: cell-based
Method: Figure 3. NC1(XIX) and F4 inhibit endothelial cell ex vivo migration. Rat aortic rings were embedded in Matrigel in 24 well-plate and then incubated with or without 40 μM NC1(XIX) or F4 for 14 days. Micro-vessel outgrowth was observed under an inverted microscope after 14 days and photographed (a). Cell outgrowth from the tissue explant was measured using a home-made macro based on ImageJ analysis software. The results are presented as mean ± SD (n = 5 replicates) (b). The experiment was repeated twice (N = 2)
The ex vivo rat aortic ring assay was adapted from Baker et al.. Thoracic aorta was dissected from Sprague Dawley rat and stored in Opti-MEM (ThermoFisher, ref 31985062) supplemented with 1% penicillin/streptomycin in a Petri dish. Aorta was then cut into 0.5 mm rings that were incubated in Opti-MEM overnight at +37°C in a Petri dish. Matrigel (7 mg/mL) was loaded in 24-well plate and allowed to polymerize at +37°C for 30 min. The rings were carefully transferred from the Petri dish onto the Matrigel coated wells and were completely embedded by addition of Matrigel. The plate was incubated at +37°C for 30 min. Opti-MEM supplemented with 30 ng/mL VEGF with or without 40 μM NC1(XIX) or F4 was added. Plate was incubated at +37°C in a humid atmosphere containing 5% CO2 for 14 days. The supplemented culture medium was changed every 3 days. Rings were imaged under an inverted light microscope at 14 days. Quantitative evaluation of the angiogenic sprouting was determined by measuring the number of endothelial cell outgrowth from the primary tissue explant using a homemade macro based on ImageJ analysis software. The first step consisted in the semi-automatic selection of aortic ring shape at day 0 by manual threshold allowing the design of a top hat filter to obtain a relevant mask of this structure. The mask was then substracted from day 14 image to keep only outgrowing cells. The second step consisted in a manual threshold and the use of ‘Analyze Particules’ tool involving size criteria. The total cell number of cell outgrowing from the ring was determined.

Q: Which “cancer progression in mouse melanoma model” value (mouse melanoma model) does the source give for “CNPEDCLYPVSHAHQR (disulfide 1-6 (inferred)) [F4, collagen XIX-derived peptide, released by plasmin from type XIX collagen]” here?
A: cancer progression in a mouse melanoma model

Q: And the melanoma cell migration (melanoma cell; in vitro, previously demonstrated by the authors, no ref in abstract)?
A: able to inhibit melanoma cell migration

Q: What about the “melanoma cell migration, compared with NC1(XIX) domain” value (melanoma cell; ref [24]) of the same sequence?
A: reproduced the whole NC1(XIX) domain effect on melanoma cell migration

Q: And the “effect on HUVEC proliferation” value [1]?
A: not significantly modified; also recorded: does not affect endothelial cell proliferation

Q: What about the “cell outgrowth, F4 compared with NC1(XIX)” value ([2]; 40 μM, 14 days, Opti-MEM with 30 ng/mL VEGF) of the same sequence?
A: even stronger than NC1(XIX) effect

Q: What about the “change of cell outgrowth from aortic ring vs control” value ([2]; 40 μM, 14 days, Opti-MEM with 30 ng/mL VEGF, Matrigel, mean ± SD (n = 5), N = 2, p < 0.01 NC1(XIX), p < 0.001 F4) of the same sequence?
A: −78%

Q: What about the “anti-angiogenic effect on aortic endothelial sprouting, F4 compared with NC1(XIX) (discussion)” value ([2]; ex vivo) of the same sequence?
A: even greater than the whole NC1(XIX) domain

Q: And the “inhibition of endothelial sprouting” value ([2]; rat aortic ring assay (abstract))?
A: endothelial sprouting in a rat aortic ring assay
